Assay results reported in ChEMBL document CHEMBL1201862, “PubChem BioAssay data set” (2004).
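Interpolation was linear, between the two tested concentrations surrounding the appropriate level; five concentrations were tested over 48 hours in 96-well plates. GI50: concentration for 50% inhibition of growth.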 Activity calls are given as the source filed them. No stated cut-off is given here; in the data, active = GI50 up to about 1.1 µM and inactive = higher.

Columns and labels:
Assay in all cases: DTP human tumour cell line panel, 48 h
SF-539 = tested on: SF-539
M14 = tested on: M14
DU-145 = tested on: DU-145
SN12C = tested on: SN12C
UO-31 = tested on: UO-31
786-0 = tested on: 786-0
NCI-H522 = tested on: NCI-H522
ACHN = tested on: ACHN
SK-MEL-2 = tested on: SK-MEL-2
SNB-19 = tested on: SNB-19
A549 = tested on: A549
RXF 393 = tested on: RXF 393
BT-549 = tested on: BT-549
HCT-15 = tested on: HCT-15
U-251 = tested on: U-251
HCT-116 = tested on: HCT-116
K562 = tested on: K562
UACC-257 = tested on: UACC-257
OVCAR-3 = tested on: OVCAR-3
T47D = tested on: T47D
SK-MEL-28 = tested on: SK-MEL-28
SF-268 = tested on: SF-268
UACC-62 = tested on: UACC-62
RPMI-8226 = tested on: RPMI-8226
A498 = tested on: A498
HL-60 = tested on: HL-60
EKVX = tested on: EKVX
SW-620 = tested on: SW-620
MDA-N = tested on: MDA-N
KM12 = tested on: KM12
CAKI-1 = tested on: CAKI-1
OVCAR-5 = tested on: OVCAR-5
SK-MEL-5 = tested on: SK-MEL-5
PC-3 = tested on: PC-3
LOX IMVI = tested on: LOX IMVI
MOLT-4 = tested on: MOLT-4
IGROV-1 = tested on: IGROV-1
MCF7 = tested on: MCF7
OVCAR-4 = tested on: OVCAR-4
TK-10 = tested on: TK-10
OVCAR-8 = tested on: OVCAR-8
NCI/ADR-RES = tested on: NCI/ADR-RES
HOP-62 = tested on: HOP-62
NCI-H23 = tested on: NCI-H23
MDA-MB-435 = tested on: MDA-MB-435
HT-29 = tested on: HT-29
NCI-H460 = tested on: NCI-H460
SNB-75 = tested on: SNB-75
NCI-H226 = tested on: NCI-H226
SK-OV-3 = tested on: SK-OV-3
COLO 205 = tested on: COLO 205
SF-295 = tested on: SF-295
MDA-MB-231 = tested on: MDA-MB-231

Question: Which GI50 (SF-539) does the source give for `Cc1cc(Cc2cc(C)c(N)cc2N)c(N)cc1N` here?
Answer: The GI50 was 80.2 µM (inactive).

Question: What about the GI50 (M14) of the same compound?
Answer: The GI50 was > 100 µM (inactive).

Question: And the GI50 (DU-145)?
Answer: Its GI50 is > 100 µM (inactive).

Question: And the GI50 (SN12C)?
Answer: The GI50 was > 100 µM (inactive).

Question: And the GI50 (UO-31)?
Answer: The GI50 was > 100 µM (inactive).

Question: And the GI50 (786-0)?
Answer: The GI50 was > 100 µM (inactive).

Question: What about the GI50 (NCI-H522) of the same compound?
Answer: The GI50 was 88.9 µM (inactive).

Question: What about the GI50 (ACHN) of the same compound?
Answer: Its GI50 is > 100 µM (inactive).

Question: And the GI50 (SK-MEL-2)?
Answer: The GI50 was > 100 µM (inactive).

Question: What about the GI50 (SNB-19) of the same compound?
Answer: Its GI50 is > 100 µM (inactive).

Question: What about the GI50 (A549) of the same compound?
Answer: Its GI50 is > 100 µM (inactive).

Question: And the GI50 (RXF 393)?
Answer: Its GI50 is > 100 µM (inactive).

Question: And the GI50 (BT-549)?
Answer: The GI50 was > 100 µM (inactive).

Question: What about the GI50 (HCT-15) of the same compound?
Answer: The GI50 was greater than 100 µM.

Question: What about the GI50 (U-251) of the same compound?
Answer: The GI50 was > 100 µM (inactive).

Question: What about the GI50 (HCT-116) of the same compound?
Answer: The GI50 was > 100 µM (inactive).

Question: And the GI50 (K562)?
Answer: The GI50 was > 100 µM (inactive).

Question: And the GI50 (UACC-257)?
Answer: Its GI50 is > 100 µM (inactive).

Question: And the GI50 (OVCAR-3)?
Answer: Its GI50 is > 100 µM (inactive).

Question: What about the GI50 (T47D) of the same compound?
Answer: The GI50 was > 100 µM (inactive).

Question: And the GI50 (SK-MEL-28)?
Answer: Its GI50 is > 100 µM (inactive).

Question: What about the GI50 (SF-268) of the same compound?
Answer: Its GI50 is 89.3 µM (inactive).

Question: What about the GI50 (UACC-62) of the same compound?
Answer: Its GI50 is > 100 µM (inactive).

Question: And the GI50 (RPMI-8226)?
Answer: Its GI50 is > 100 µM (inactive).

Question: And the GI50 (A498)?
Answer: Its GI50 is > 100 µM (inactive).

Question: And the GI50 (HL-60)?
Answer: Its GI50 is > 100 µM (inactive).

Question: And the GI50 (EKVX)?
Answer: The GI50 was > 100 µM (inactive).

Question: What about the GI50 (SW-620) of the same compound?
Answer: The GI50 was > 100 µM (inactive).

Question: What about the GI50 (MDA-N) of the same compound?
Answer: The GI50 was > 100 µM (inactive).

Question: What about the GI50 (KM12) of the same compound?
Answer: The GI50 was 85.5 µM (inactive).

Question: And the GI50 (CAKI-1)?
Answer: Its GI50 is > 100 µM (inactive).

Question: And the GI50 (OVCAR-5)?
Answer: Its GI50 is > 100 µM (inactive).

Question: What about the GI50 (SK-MEL-5) of the same compound?
Answer: The GI50 was > 100 µM (inactive).

Question: And the GI50 (PC-3)?
Answer: The GI50 was > 100 µM (inactive).

Question: What about the GI50 (LOX IMVI) of the same compound?
Answer: Its GI50 is 81.5 µM (inactive).

Question: What about the GI50 (MOLT-4) of the same compound?
Answer: Its GI50 is 33.3 µM (inactive).

Question: What about the GI50 (IGROV-1) of the same compound?
Answer: The GI50 was 4.38 µM (inactive).

Question: And the GI50 (MCF7)?
Answer: The GI50 was > 100 µM (inactive).

Question: And the GI50 (OVCAR-4)?
Answer: Its GI50 is > 100 µM (inactive).

Question: And the GI50 (TK-10)?
Answer: Its GI50 is > 100 µM (inactive).

Question: And the GI50 (OVCAR-8)?
Answer: Its GI50 is 94.4 µM (inactive).

Question: And the GI50 (NCI/ADR-RES)?
Answer: The GI50 was > 100 µM (inactive).

Question: What about the GI50 (HOP-62) of the same compound?
Answer: The GI50 was 93.5 µM (inactive).

Question: What about the GI50 (NCI-H23) of the same compound?
Answer: Its GI50 is 28.2 µM (inactive).

Question: What about the GI50 (MDA-MB-435) of the same compound?
Answer: The GI50 was 99.3 µM (inactive).

Question: What about the GI50 (HT-29) of the same compound?
Answer: Its GI50 is > 100 µM (inactive).

Question: And the GI50 (NCI-H460)?
Answer: The GI50 was 77.3 µM (inactive).

Question: And the GI50 (SNB-75)?
Answer: The GI50 was > 100 µM (inactive).

Question: What about the GI50 (NCI-H226) of the same compound?
Answer: The GI50 was > 100 µM (inactive).

Question: And the GI50 (SK-OV-3)?
Answer: Its GI50 is > 100 µM (inactive).

Question: And the GI50 (COLO 205)?
Answer: The GI50 was > 100 µM (inactive).

Question: And the GI50 (SF-295)?
Answer: The GI50 was > 100 µM (inactive).

Question: What about the GI50 (MDA-MB-231) of the same compound?
Answer: Its GI50 is > 100 µM (inactive).
